Measured values from patent US12637513B2, “Method of treating cancer by administering an inhibitor of erythropoietin receptor activity comprising either erythropoietin receptor or erythropoietin protein” (ImmunEdge, Inc., priority 2022, dated 2026).
Like-named read-outs stand apart in the source and are kept apart here.

How the values were obtained:
HIF-1a = HIF-1a (Homo sapiens, UniProt Q16665); details: cited from earlier work
HIF-2a = HIF-2a (Homo sapiens, UniProt Q99814); details: target HIF-2a; cited from earlier work
PHD = details: cited from earlier work
[1] = target: T1, EPO/EPOR interaction (EPOR-CD131-Fc and EPO) (Homo sapiens, UniProt P19235+P32927); experiment: Octet blocking of the EPO/EPOR interaction by hybridoma supernatants; format: binding; details: EPO 10 nM
T1 construct: Chimeric Fc fusion proteins of the extracellular domains of human EPOR and human CD131; purchased Sino Biological CT010-H02H
T1 sequence (P19235 25-250 limits assumed): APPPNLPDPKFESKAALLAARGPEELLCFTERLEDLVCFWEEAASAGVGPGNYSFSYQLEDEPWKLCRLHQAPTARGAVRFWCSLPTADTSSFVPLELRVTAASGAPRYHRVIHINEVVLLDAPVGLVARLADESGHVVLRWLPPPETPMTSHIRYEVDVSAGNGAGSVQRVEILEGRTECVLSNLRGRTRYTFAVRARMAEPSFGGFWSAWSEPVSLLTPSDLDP
T1 sequence (P32927 17-443 limits assumed): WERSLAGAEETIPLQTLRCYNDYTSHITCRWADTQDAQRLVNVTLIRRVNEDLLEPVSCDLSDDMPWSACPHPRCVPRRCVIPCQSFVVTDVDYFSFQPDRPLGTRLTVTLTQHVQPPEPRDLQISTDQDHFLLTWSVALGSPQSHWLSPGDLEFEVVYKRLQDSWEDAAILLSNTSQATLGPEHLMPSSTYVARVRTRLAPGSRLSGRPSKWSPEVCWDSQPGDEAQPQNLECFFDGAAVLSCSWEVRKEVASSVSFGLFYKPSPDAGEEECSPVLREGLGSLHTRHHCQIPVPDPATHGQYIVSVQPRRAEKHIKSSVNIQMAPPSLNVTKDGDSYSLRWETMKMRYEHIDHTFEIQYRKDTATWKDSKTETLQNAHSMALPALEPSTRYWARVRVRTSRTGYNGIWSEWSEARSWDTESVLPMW

[2] = target: T2, soluble hetero-EPOR (EPOR-CD131-Fc) (Homo sapiens, UniProt P19235+P32927); experiment: Bio-layer interferometry (Octet) binding of hybridoma antibodies to EPOR-CD131-Fc; details: hybridoma supernatants; 30 nM soluble receptor
T2 construct: Chimeric Fc fusion proteins of the extracellular domains of human EPOR and human CD131; purchased Sino Biological CT010-H02H
T2 sequence (P19235 25-250 limits assumed): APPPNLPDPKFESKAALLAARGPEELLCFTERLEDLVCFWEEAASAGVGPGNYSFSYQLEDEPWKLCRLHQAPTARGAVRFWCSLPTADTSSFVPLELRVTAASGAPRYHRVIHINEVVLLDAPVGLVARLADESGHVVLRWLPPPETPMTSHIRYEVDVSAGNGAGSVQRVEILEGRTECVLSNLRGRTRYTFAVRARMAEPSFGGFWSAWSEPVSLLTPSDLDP
T2 sequence (P32927 17-443 limits assumed): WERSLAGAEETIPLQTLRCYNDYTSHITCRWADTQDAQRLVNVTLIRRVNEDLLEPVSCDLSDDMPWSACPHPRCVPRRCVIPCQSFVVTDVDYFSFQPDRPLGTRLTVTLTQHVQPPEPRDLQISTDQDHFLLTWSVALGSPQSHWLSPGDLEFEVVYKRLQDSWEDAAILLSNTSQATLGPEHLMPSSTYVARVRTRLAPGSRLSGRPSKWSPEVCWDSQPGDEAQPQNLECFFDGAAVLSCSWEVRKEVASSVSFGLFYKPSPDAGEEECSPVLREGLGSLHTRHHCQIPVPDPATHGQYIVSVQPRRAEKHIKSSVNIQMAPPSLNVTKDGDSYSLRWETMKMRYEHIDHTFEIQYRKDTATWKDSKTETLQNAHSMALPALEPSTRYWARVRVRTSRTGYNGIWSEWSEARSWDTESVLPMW
Source text: (§1) The B cells from ATX-GK mice were fused with mouse myeloma cells to generate hybridoma. The hybridoma cells were screened twice. In the first screening, 293 cells expressing human EPOR, human CD131, or both were used as the primary screen. 87 hybridoma antibodies have been isolated by positive staining on 293T cells expressing human EPOR (hEPOR), human CD131 (hCD131), or both, with the hybridoma supernatants (Table 11 and FIG. 17). Expression of EPOR and CD131 was confirmed by flow cytometry with Phycoerythrin (PE)-labeled anti-EPOR (R&D Systems, Cat #FAB307P) and Alexa Fluor® 647 (AF647)-labeled anti-CD131 (BD Biosciences, Cat #564191), respectively (FIG. 28B). All hybridoma clones were purified and sequenced. Binding kinetics with soluble hetero-EPOR (EPOR-CD131-Fc), soluble EPO receptor subunit of hetero-EPOR (EPOR-Fc), and soluble CD131 subunit of hetero-EPOR (CD131-Fc) were measured using bio-layer interferometry (Octet®) by capturing the hybridoma antibodies in the supernatants on biosensors coated with anti-mouse Fc first and dipping the biosensors into the solutions containing 30 nM of the soluble receptor Fc fusion proteins. The supernatants were also used to block the interaction between EPO and EPOR. The soluble EPOR-CD131-Fc was first captured on biosensors coated with anti-human Fc and then dipped into 10 nM of EPO with or without the hybridoma supernatants. […]

EPOR-Fc = target: T3, EPOR-Fc (Homo sapiens, UniProt P19235); experiment: Bio-layer interferometry (Octet) binding of hybridoma antibodies to EPOR-Fc; details: hybridoma supernatants; 30 nM soluble receptor
T3 construct: The extracellular domains of EPOR or CD131 are produced as soluble Fc fusion proteins; purchased Sino Biological 10707-H02H
T3 sequence (P19235 25-250 limits assumed): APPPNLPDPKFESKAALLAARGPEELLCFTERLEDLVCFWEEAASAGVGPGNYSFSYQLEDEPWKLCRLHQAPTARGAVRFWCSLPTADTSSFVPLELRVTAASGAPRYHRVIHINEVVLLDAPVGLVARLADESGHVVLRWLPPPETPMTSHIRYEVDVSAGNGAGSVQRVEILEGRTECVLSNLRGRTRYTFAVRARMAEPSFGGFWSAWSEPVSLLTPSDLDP
Source text: as §1

Chain of HIF-2a (Q99814 whole entry): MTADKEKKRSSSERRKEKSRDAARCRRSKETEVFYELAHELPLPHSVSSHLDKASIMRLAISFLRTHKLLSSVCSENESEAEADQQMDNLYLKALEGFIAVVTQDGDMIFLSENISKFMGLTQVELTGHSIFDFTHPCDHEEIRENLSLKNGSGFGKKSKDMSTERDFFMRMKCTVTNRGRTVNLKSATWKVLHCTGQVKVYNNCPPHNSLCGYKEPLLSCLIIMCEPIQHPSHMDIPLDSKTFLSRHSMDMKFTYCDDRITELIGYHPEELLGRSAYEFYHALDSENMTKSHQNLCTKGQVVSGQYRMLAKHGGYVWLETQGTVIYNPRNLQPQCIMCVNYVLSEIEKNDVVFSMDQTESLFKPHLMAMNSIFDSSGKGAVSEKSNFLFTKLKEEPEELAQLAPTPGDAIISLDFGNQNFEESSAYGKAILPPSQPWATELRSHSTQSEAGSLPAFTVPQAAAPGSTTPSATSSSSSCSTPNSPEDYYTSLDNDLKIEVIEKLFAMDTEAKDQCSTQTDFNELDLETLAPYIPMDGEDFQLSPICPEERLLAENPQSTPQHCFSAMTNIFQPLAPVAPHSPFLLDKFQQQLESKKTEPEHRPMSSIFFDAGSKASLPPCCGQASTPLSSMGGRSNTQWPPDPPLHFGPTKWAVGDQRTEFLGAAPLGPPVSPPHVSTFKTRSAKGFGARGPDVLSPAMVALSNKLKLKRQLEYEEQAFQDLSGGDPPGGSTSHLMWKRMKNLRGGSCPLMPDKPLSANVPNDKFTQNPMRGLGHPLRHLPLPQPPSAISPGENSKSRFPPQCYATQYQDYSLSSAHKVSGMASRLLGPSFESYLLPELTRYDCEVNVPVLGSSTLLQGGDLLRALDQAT
Chain of HIF-1a (Q16665 whole entry): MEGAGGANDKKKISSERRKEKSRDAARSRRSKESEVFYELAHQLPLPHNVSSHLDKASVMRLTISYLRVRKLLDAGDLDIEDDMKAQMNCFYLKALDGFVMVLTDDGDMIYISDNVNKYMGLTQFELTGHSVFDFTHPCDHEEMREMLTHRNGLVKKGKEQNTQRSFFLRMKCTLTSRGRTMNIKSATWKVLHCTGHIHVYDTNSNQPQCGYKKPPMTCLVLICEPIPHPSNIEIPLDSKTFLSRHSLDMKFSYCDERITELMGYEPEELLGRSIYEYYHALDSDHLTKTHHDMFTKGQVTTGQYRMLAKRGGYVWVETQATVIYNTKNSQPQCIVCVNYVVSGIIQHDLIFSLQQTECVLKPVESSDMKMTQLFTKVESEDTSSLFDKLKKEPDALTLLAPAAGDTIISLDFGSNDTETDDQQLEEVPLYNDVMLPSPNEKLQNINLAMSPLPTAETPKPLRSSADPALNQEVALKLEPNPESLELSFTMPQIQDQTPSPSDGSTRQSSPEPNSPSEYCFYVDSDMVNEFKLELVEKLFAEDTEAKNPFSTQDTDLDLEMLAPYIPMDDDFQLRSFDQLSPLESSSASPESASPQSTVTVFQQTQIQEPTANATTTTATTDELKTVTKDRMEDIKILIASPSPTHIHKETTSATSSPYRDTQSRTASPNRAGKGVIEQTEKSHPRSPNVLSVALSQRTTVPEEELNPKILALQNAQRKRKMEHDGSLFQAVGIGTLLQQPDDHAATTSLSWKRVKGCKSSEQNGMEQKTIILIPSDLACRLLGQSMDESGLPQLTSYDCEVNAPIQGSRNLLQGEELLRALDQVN

## COC(=O)c1ccc(O)c(NC(=O)COc2ccc(C34CC5CC(CC(C5)C3)C4)cc2)c1 [CAY10585 (LW6)]
HIF-1a; read-out: IC50
  IC50: 700 to 2600 nM

## CN1C(=O)[C@]2(Cc3cn([C@]45C[C@@]67SS[C@@](CO)(C(=O)N6[C@H]4Nc4ccccc45)N(C)C7=O)c4ccccc34)SS[C@@]1(CO)C(=O)N2C [Chetomin]
HIF-1a; target HIF-1a, read-out: IC50
  IC50: 10 nM

## CS[C@H]1SC[C@H]2C(=O)N(C)[C@@H](C(C)C)C(=O)OC[C@@H](NC(=O)c3cnc4ccccc4n3)C(=O)N[C@@H](C)C(=O)N(C)[C@@H]1C(=O)N(C)[C@@H](C(C)C)C(=O)OC[C@@H](NC(=O)c1cnc3ccccc3n1)C(=O)N[C@@H](C)C(=O)N2C [Echinomycin]
HIF-1a; target HIF-1a, read-out: IC50
  IC50: 1.2 nM

## Cc1ccc(C(=O)COC(=O)c2cccc(NC(=O)c3ccc([N+](=O)[O-])cc3[N+](=O)[O-])c2)cc1 [FM19G11]
HIF-1a; target HIF-1a
  IC50: 80 nM

## O=[N+]([O-])c1cc(Nc2ccc3nonc3c2[N+](=O)[O-])ccc1Cl [HIF-2α-IN-3]
HIF-2a
  IC50: 400 nM

## COC(=O)c1sccc1N/N=C(\C#N)S(C)(=O)=O [HIF-2α-IN-4]
HIF-2a
  IC50: 5000 nM

## O=S(=O)(NCCSSCCNS(=O)(=O)c1cc(Cl)ccc1Cl)c1cc(Cl)ccc1Cl [KC7F2]
HIF-1a; target HIF-1a, read-out: IC50
  IC50: 20000 nM

## c1ccc(-c2ccc(CNc3nc(-c4ccccn4)nnc3-c3ccccc3)cc2)cc1 [ML228]
PHD; target cell empty
  IC50: 1000 nM

## O=c1c(-n2ccnn2)c[nH]n1-c1cc(N2CCOCC2)ncn1 [Molidustat]
PHD; target PHD
  IC50: 450 nM

## O=C(O)CNC(=O)c1ncc(-c2cn(CCCc3ccc(Cl)cc3)nn2)cc1O [Prolyl Hydroxylase inhibitor 1]
PHD; target PHD
  IC50: 62.2 nM

## O=[N+]([O-])c1c(Nc2cc(F)cc(Cl)c2)ccc2nonc12 [TC-S 700]
HIF-2a
  IC50: 81 nM

## CC[C@@H](C)C[C@H](C)C[C@H](C)/C=C(\C)[C@H]1OC(O)([C@](C)(O)C(=O)N[C@@H]2C(=O)N3NCCC[C@@H]3C(=O)N(O)CC(=O)N(C)CC(=O)NCC(=O)N(C)CC(=O)O[C@H]2C(C)C)CC[C@@H]1OC (stereo partly shown) [Verucopeptin]
HIF-1a; target HIF-1a, read-out: IC50
  IC50: 220 nM

B1: EPORab - M52: hybridoma antibody clone, VH/VK in Table 10 (antibody, V domains shown)
VH: QLQLQESGPGLAKPSETLSLTCTVSGVSISSNSYYWGWIRQPPGKGLEWIGNIYHSGRTYYNPSLRSRVTISVDTSKNQFSLKLNSVTAADTAVYYCARGYSYGAFDYWGQGTLVTVSS
VL: DIQMTQSPSSLSASVGDRVTITCRASQGIRNDLGWYQQKPGKAPKRLIYAASSLQSGIPSRFSGSGSGTEFTLTISSLQPEDFATYYCLQHNNYPWTFGQGTKVEIK
[1]
  blocking of the EPO/EPOR interaction: partial blocking

B2: EPORab - M19: hybridoma antibody clone, VH/VK in Table 10 (antibody, V domains shown)
VH: QLQLQESGPGLVKPSETLSLTCTVSGGSISSSNHYWGWIRQPPGKGLEWIGTLYYSGSTYYEPSLKSRVTISVDTSMNQFSLNLSSVTATDTAVYNCARGDRYGPFDYWGQGTLVTVSS
VL: DIVMTQSPSSLSASVGDRVTITCRASQGIRDDLGWYQQKPEKAPKRLICAASSLQSGVPSRFSGSGSGTEFTLTISSLQPEDFATYYCLQYNRYPWTFGQGTKVEIK
[1]
  blocking of the EPO/EPOR interaction: partial blocking

B3: EPORab - M1: hybridoma antibody clone, VH/VK in Table 10 (antibody, V domains shown)
VH: QVQLQESGPGLVKPSQTLSLTCTVSGGSISSGGYYWSWIRQHPGKGLEWIGNIYYSGNPYYNPSLKSRLIISVDTSKNQFSLRLNSVTAADTAVYYCATFYYGSGSYYNEDYWGQGTLVTVSS
VL: DIQMTQSPSSLSASVGDRVTITCRASQGIRIDLGWYQQKPGKAPKRLIYAASSLKSGVPSRFSGSGSGTEFTLTISSLQPEDFTTYFCLQHNSYPYTFGQGTKLEIK
[2]
  binding to EPOR-CD131-Fc: potent binding
EPOR-Fc
  binding to EPOR-Fc: potent binding
[1]
  blocking of the EPO/EPOR interaction: partial blocking

B4: EPORab - M37: hybridoma antibody clone, VH/VK in Table 10 (antibody, V domains shown)
VH: QVQLQESGPGLVKPSGTLSLTCAVSGGSITTNNWWSWVRQSPGKGLEWIGEIYHSGNTNYNPSLKSRVTMSVDKSKNQFSLNLNSVIVADTAVYYCASALGTYYGAFDTWGQGTMVTVSA
VL: DIQMTQSPSSLSASVGDRVTITCRASQSISNYLNWYQQKPGKAPKLLIYAASSLQSGVPSRFSGSGSGTDFTLTISSLQPEDFTTYYCQQSYGTPYTFGQGAKLQIK
[1]
  blocking of the EPO/EPOR interaction: did not block

B5: EPORab - M43: hybridoma antibody clone, VH/VK in Table 10 (antibody, V domains shown)
VH: QVQLQESGPGLVKPSGTLSLTCAVSGGSISSSNWWSWVRQPPGKGLEWIGEIYHSGSINYNPSLKSRVTISVDKSKNQFSLKLTSVTAADTAVYYCASALGNYYGAFDLWGQGTMVTVSS
VL: DIVMTQSPSSLSASVGDRVTITCRASQTISSYLNWYQQKPGKAPKLLICAASSLQGGVPSRFSGSGSGTDFTLTISSLQPEDFAPYYCQQSYSTPYTFGQGTKLEIK
[1]
  blocking of the EPO/EPOR interaction: did not block

B6: EPORab - M54: hybridoma antibody clone, VH/VK in Table 10 (antibody, V domains shown)
VH: QLQLQESGPGLVKPSETLSLTCSVSGGSISSSGYYWGWIRQPPGKGLDWIGTIYYSGNTNYNPSLNSRVTISVDTSRNQFSLKLRSVTAADTAVYYCARGYSYGPFDYWGQGTLVTVSS
VL: EIVMTQSPATLSVSPGERATLSCRASQSVSSNLAWYQLKPGQAPRLLIYGASTRATGIPARFSGSGSGTEFTLTISSLQSEDFAVYYCHPYNNWPLTFGGGTKVEIK
[1]
  blocking of the EPO/EPOR interaction: partial blocking

B7: EPORab - M71: hybridoma antibody clone, VH/VK in Table 10 (antibody, V domains shown)
VH: QVQLVESGAEVKKPRASVKVSCKTSGYTFTRHYMHWVRQAPGQGLEWMGIINPNNNSTSYAQKFQGRITMTRDTSTSTVYMELSSLRSEDTAVYYCARFRIVGTTLYFDYWGQGTLVTVSS
VL: EIVMTQSPATLSVSPGERATLSCRASQSVSSNLAWYQLKPGQAPRLLIYGASTRATGIPARFSGSGSGTEFTLTISSLQSEDFAVYYCHPYNNWPLTFGGGTKVEIK
[1]
  blocking of the EPO/EPOR interaction: did not block

B8: EPORab - M24: hybridoma antibody clone, VH/VK in Table 10 (antibody, V domains shown)
VH: EVQLVESGGGLVKPGGSLRLSCAASGFTFTNAWMNWVRQAPGKGLEWIGRIKSKTAGETTDYAAPVKGRFTISRDDSKNTLYLQMNSLKTEDTAVYYCTTDPDYGDPYYYYYFMDVWGKGTTVTVSS
VL: DIQMTQSPSSLSASIGDRVTISCRASQSISSYLNWYQQKPGKAPKLLIYGASSLQSGVPSRFSGSGSGTDFTLTISSLQPEDFATYYCQQSYSLPLTFGGGTKVEIK
[1]
  blocking of the EPO/EPOR interaction: partial blocking
